Tests used:
[1] = biological target: T1, recombinant Btk kinase enzyme (Homo sapiens, UniProt Q06187); experiment: In vitro inhibition of Btk kinase activity (ADP-Glo); type: biochemical; settings: Table 8; ADP-Glo; read-out: IC50 kinase BTK
T1 construct: purchased SignalChem B10-10H
Method: To assess Btk kinase activity described herein, SignalChem kinase system was used. Btk kinase activity was determined in the reaction between recombinant Btk kinase enzyme (SignalChem #B10-10H) and Poly (4:1 Glu, Tyr) peptide substrate in the presence of the inhibitor.
Staurosporine (Abcam Biochemicals, ab146588) was used as a reference inhibitor and 0.1% DMSO in the reaction buffer—as a negative control. The solution of 0.5 mg/mL peptide substrate and 50 &M ATP in the same buffer were added; the solution was incubated for 180 minutes at 37° C. To detect the amount of ATP taken up during the kinase reaction, the equivalent amount of ADP (from the ADP Glo Detection Kit (Promega, #V9101)) was used according to the protocol. The reaction mixture was equilibrated to room temperature. 25 µL of ADP-Glo Reagent were added into each well; the plate was incubated for 40 minutes. 50 μL of Kinase Detection Reagent were added; the plate was incubated for 30 minutes. The luminescence was measured with multimode plate reader (Tecan Infinite M200Pro, Switzerland). IC50 values were calculated using Magellan 7.2 software (Tecan, Switzerland) approximating experimental points by four-parameter logistic model with the optimization by Levenberg-Marquardt.

[2] = Permeability through the monolayer of Caco-2 cells; type: in vitro ADME; settings: human; for Papp A→B at 2 h, 10 μM / Papp B→A at 2 h, 10 μM: 2 h at 37° C.; for efflux ratio at 2 h, 10 μM: read-out: efflux (Papp B-A/Papp A-B)
Method in brief: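 Bidirectional transport measured over 7200 s with 10 μM compound, using an apical buffer at pH 6.5 and a basolateral Hanks/HEPES/glucose buffer at pH 7.4 containing 1% BSA. Monolayers were 21-day Caco-2 cultures verified with Lucifer Yellow. Chamber concentrations quantified chromatographically to derive Papp in both directions and their B-A/A-B efflux ratio.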

[3] = General cytotoxicity on HepG2 cells (CC50; therapeutic index CC50 HepG2/IC50 Mino); type: cell-based; settings: human, HepG2 cells (hepatocellular carcinoma); Table 10; 72 hours, Alamar Blue; average of several tests
Method in brief: (§1)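 Alamar Blue viability after 72 h exposure to compounds (final 200 μM–4 μM) gave CC50; HepG2 plated 2*10^4/well in DMEM 24 h beforehand. Therapeutic index expressed as ratio of HepG2 CC50 to Mino antiproliferative IC50.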

[4] = test system: HepG2 cells (hepatocellular carcinoma); experiment: as above; type: cell-based; settings: Table 10; therapeutic index
Method in brief: as §1

[5] = test system: Mino (mantle cell lymphoma); experiment: Antiproliferative activity, Mino cells (Alamar Blue); type: cell-based; settings: Homo sapiens, Table 10, 72 h, average of several tests
Method in brief: (§2)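 Readout: Alamar Blue fluorescence (540 nm excitation, 590 nm emission) after 14-16 h reagent incubation, following 72 h compound exposure at 37 °C. About 3*10^4 cells/well were grown in 10% FBS RPMI-1640. IC50 values were fitted by a four-parameter logistic model.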

[6] = Stability in human blood plasma; settings: 10 μM in pooled human blood plasma, incubated 4 hours at 37° C.
Method: To assess the blood plasma stability of the drug candidates, we used pooled human blood plasma taken from ten healthy donors. The initial solution (10 Mm in DMSO) was diluted with pooled blood plasma to 10 μM (test solution). The test solution had been incubated for 4 hours in a dry block heater at 37° C. We determined peak areas of the compounds corresponding to the start of the test (before incubating) and the end of the test (after incubating in a dry block heater at 37° C.) by HPLC using Agilent1200 chromatograph (Agilent, USA) with preliminary protein precipitation with acetonitrile. We used gradient elution (1 mL/min flow rate). We determined amount of substance in the sample in % after incubation.
(§3) We evaluated the stability of the compounds.

[7] = test system: Z-138 (mantle cell lymphoma); experiment: Antiproliferative activity, Z-138 cells (Alamar Blue); type: cell-based; settings: Homo sapiens, Table 10, 72 h, average of several tests
Method in brief: as §2

[8] = test system: DOHH2 (follicular lymphoma); experiment: Antiproliferative activity, DOHH2 cells (Alamar Blue); type: cell-based; settings: Homo sapiens, DOHH-2, Table 10, 72 h, average of several tests
Method: Antiproliferative activity of BTK inhibitors was measured in cell-based bioassay on B-cells cultures: Mino (mantle cell lymphoma, ATCC® CRL-3000™), Z-138 (mantle cell lymphoma, ATCC® CRL-3001™) and DOHH2 (follicular lymphoma, Creative Bioarray CSC-C0219) using cell viability reagent Alamar Blue (Invitrogen, #DAL 1100). Cells were cultured in 10% FB S-supplemented (HyClone, #SH3008803/Gibco, #16140-071) RPMI-1640 (PanEco, #S330p) for at least 1 passage after thawing, washed with PBS and passaged in 96-well culture plates (Corning, #3599) with growth medium with 10% FBS (HyClone, #SH3008803/Gibco, #16140-071) and antibiotic (50 μg/ml of gentamicin (Biolot, #1.3.16))≈3*10^4 cells in 50 μl of medium per well.
The compounds were dissolved in DMSO and diluted with the assay medium to final concentrations ranging from […]. 150 μl of each diluted compound were then added to each well (final concentration of DMSO was less than 1%) and incubated at 37° C. in an incubator under 5% of CO2 for 72 h. After incubation, 20 μl of Alamar Blue reagent (Invitrogen, #DAL1100) were added to each well. The plates were shaked on an orbital shaker (Biosan, Latvia) and then incubated for 14-16 hours at 37° C. in the incubator.
The number of living cells were estimated, measuring the fluorescence signal at the excitation wavelength (REx) of 540 nm and the emission wavelength (λEm) of 590 nm on a microplate reader (Tecan Infinite M200Pro, Switzerland).
For each compound, IC50 was calculated using Magellan 7.2 software (Tecan, Switzerland) approximating experimental points by four-parameter logistic model with the optimization by Levenberg-Marquardt.

[9] = Chemical stability in artificial gastric fluid (SGF without enzymes); settings: 10 μM in SGF without enzymes, pH=1.4, 37° C.
Method: The initial candidate solution (10 mM in DMSO) was diluted with the working solution of SGF to the concentration of 10 μm (test solution). The test solution was incubated in a dry block heater at 37° C. We determined peak areas of the compounds corresponding to the start of the test (before incubating) and the end of the test (after incubating in a dry block heater at 37° C.) by HPLC using Agilent1200 chromatograph (Agilent, USA). We used gradient elution (1 mL/min flow rate). We determined amount of substance in the sample in % after incubation.
as §3

T1 sequence (Q06187 whole entry): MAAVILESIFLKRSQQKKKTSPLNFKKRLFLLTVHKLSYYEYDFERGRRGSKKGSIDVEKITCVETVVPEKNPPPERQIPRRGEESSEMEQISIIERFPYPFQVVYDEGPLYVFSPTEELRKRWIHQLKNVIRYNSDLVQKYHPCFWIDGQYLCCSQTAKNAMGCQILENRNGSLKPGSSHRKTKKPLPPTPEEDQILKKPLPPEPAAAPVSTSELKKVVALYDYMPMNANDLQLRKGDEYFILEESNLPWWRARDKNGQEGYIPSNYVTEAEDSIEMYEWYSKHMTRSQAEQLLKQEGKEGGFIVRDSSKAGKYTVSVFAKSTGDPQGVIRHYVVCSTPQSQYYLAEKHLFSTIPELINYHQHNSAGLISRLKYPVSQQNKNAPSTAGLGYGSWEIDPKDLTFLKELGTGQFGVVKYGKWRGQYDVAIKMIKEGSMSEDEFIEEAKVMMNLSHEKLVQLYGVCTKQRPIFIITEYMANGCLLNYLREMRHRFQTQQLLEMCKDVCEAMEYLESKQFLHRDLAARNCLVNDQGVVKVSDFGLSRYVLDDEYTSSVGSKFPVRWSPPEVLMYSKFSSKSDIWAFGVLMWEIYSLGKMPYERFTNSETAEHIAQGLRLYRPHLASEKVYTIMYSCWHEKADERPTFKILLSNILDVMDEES

Compound | IC50 [1] [µM] | Papp A→B at 2 h, 10 μM [2] [×10⁻⁶ cm/s] | Papp B→A at 2 h, 10 μM [2] [×10⁻⁶ cm/s] | efflux ratio at 2 h, 10 μM [2] | IC50 [5] [µM] | Amount of substance in the sample, % (stability in human blood plasma) [6] [%] | IC50 [7] [µM] | IC50 [8] [µM] | Amount of substance in the sample in % (chemical stability) [9] [%] | CC50 at 72 h [3] [µM] | CC50 (HepG2)/IC50 (Mino) [4]
C=CC(=O)N1CCC[C@@H](n2nc(-c3ccc(Oc4ccncc4C(N)=O)cc3)c3cncc(Cl)c32)C1 [BCD-BTK-203, (R)-4-(4-(1-(1-acryloylpiperidin-3-yl)-7-chloro-1H-pyrazolo[4,3-c]pyridin-3-yl)phenoxy)nicotinamide] | 1.1 | 9.31 | 8.4 | 0.9 | 13.6 | 84.7 | 16 | 14 |  | 61.9 | 4.55
C=CC(=O)N1CCC[C@@H](n2nc(-c3ccc(Oc4cccnc4C#N)cc3)c3cncc(Cl)c32)C1 [BCD-BTK-218, 3-(4-{7-chloro-1-[1-(prop-2-enoyl)piperidin-3-yl]-1H-pyrazolo[4,3-c]pyridin-3-yl}phenoxy)pyridine-2-carbonitrile] | 0.0555 | 20.2 | 17.4 | 0.86 | 1.1 | 92.0 | 8.58 | 3.55 |  | 26.2 | 23.92
C=CC(=O)N1CCC[C@@H](n2nc(-c3cnc(C(=O)Nc4ccccn4)nc3)c3cncc(Cl)c32)C1 [BCD-BTK-229, (R)-5-(1-(1-acryloylpiperidin-3-yl)-7-chloro-1H-pyrazolo[4,3-c]pyridin-3-yl)-N-(pyridin-2-yl)pyrimidine-2-carboxamide] | 0.0439 | 10.7 | 12.2 | 1.14 | 36.3 | 83.5 | 77.1 | 41.2 | 99.8 | > 100 | >2.75
C=CC(=O)N1CCC[C@@H](n2nc(-c3ccc(C(=O)Nc4ncccc4F)cc3)c3cncc(C#N)c32)C1 [BCD-BTK-235, 4-{7-cyano-1-[(3R)-1-(prop-2-enoyl)piperidin-3-yl]-1H-pyrazolo[4,3-c]pyridin-3-yl}-N-(3-fluoropyridin-2-yl)benzamide] | 0.0139 |  |  |  | 18.6 |  | > 100 | > 100 | 100 | > 100 | >5.37
C=CC(=O)N1CCC[C@@H](n2nc(-c3ccc(C(=O)Nc4cc(C(F)(F)CCC)ccn4)cc3)c3cncc(F)c32)C1 [BCD-BTK-247, (R)-4-(1-(1-acryloylpiperidin-3-yl)-7-fluoro-1H-pyrazolo[4,3-c]pyridin-3-yl)-N-(4-(1,1-difluorobutyl)pyridin-2-yl)benzamide] | 0.0147 |  |  |  | 5.81 |  | > 50 | > 100 |  | > 100 | >17.21
C=CC(=O)N1CC[C@@H](n2nc(-c3ccc(Oc4ccncc4)cc3)c3cncc(Cl)c32)C1 [BCD-BTK-272, (R)-1-(3-(7-chloro-3-(4-(pyridin-4-yloxy)phenyl)-1H-pyrazolo[4,3-c]pyridin-1-yl)pyrrolidin-1-yl)prop-2-en-1-one] | 0.0548 | 6.3 | 1.1 | 0.18 | 6.83 |  | 14.9 | 5.23 | 100 | 17.6 | 2.57

Further lines, with some results ahead:

IC50 [1] [µM] | Papp A→B at 2 h, 10 μM [2] [×10⁻⁶ cm/s] | Papp B→A at 2 h, 10 μM [2] [×10⁻⁶ cm/s] | efflux ratio at 2 h, 10 μM [2] | IC50 [5] [µM] | Amount of substance in the sample, % (stability in human blood plasma) [6] [%] | IC50 [7] [µM] | IC50 [8] [µM] | Amount of substance in the sample in % (chemical stability) [9] [%] | Compound | CC50 at 72 h [3] [µM] | CC50 (HepG2)/IC50 (Mino) [4]
0.0115 |  |  |  | 5.44 |  | 4.11 | 1.11 | 100 | C=CC(=O)N1CCC[C@@H](n2nc(-c3ccc(C(=O)Nc4ncccc4F)cc3)c3c(N)ncc(Cl)c32)C1 [BCD-BTK-233, (R)-4-(1-(1-acryloylpiperidin-3-yl)-4-amino-7-chloro-1H-pyrazolo[4,3-c]pyridin-3-yl)-N-(3-fluoropyridin-2-yl)benzamide] | 18.4 | 3.39
0.0174 | 6.51 | 2.87 | 0.44 | 8.93 | 96.8 | 11.1 | 3.79 | 100 | C=CC(=O)N1CCC[C@@H](n2nc(-c3ccc(Oc4cccnc4C#N)cc3)c3c(N)ncc(Cl)c32)C1 [BCD-BTK-236, 3-(4-{4-amino-7-chloro-1-[(3R)-1-(prop-2-enoyl)piperidin-3-yl]-1H-pyrazolo[4,3-c]pyridin-3-yl}phenoxy) pyridine-2-carbonitrile] | 27.1 | 3.03
0.0126 | 6.9 | 3.5 | 0.5 | 6.25 |  | 6.99 | 3.25 |  | C=CC(=O)N1CCC[C@@H](n2nc(-c3ccc(C(=O)Nc4ccc(F)cn4)cc3)c3c(N)ncc(Cl)c32)C1 [BCD-BTK-237, 4-{4-amino-7-chloro-1-[(3R)-1-(prop-2-enoyl)piperidin-3-yl]-1H-pyrazolo[4,3-c]pyridin-3-yl}-N-(5-fluoropyridin-2-yl)benzamide] | 28.4 | 4.54
0.0189 | 6.75 | 4.78 | 0.71 | 10.6 |  | 9.44 | 4.05 | 100 | C=CC(=O)N1CCC[C@@H](n2nc(-c3ccc(C(=O)Nc4ccccn4)cc3)c3c(N)ncc(Cl)c32)C1 [BCD-BTK-238, 4-{4-amino-7-chloro-1-[(3R)-1-(prop-2-enoyl)piperidin-3-yl]-1H-pyrazolo[4,3-c]pyridin-3-yl}-N-(pyridin-2-yl)benzamide] | 24.8 | 2.34
0.0652 |  |  |  | 2 |  | 1.19 | 1.94 |  | CC#CC(=O)N1CCC[C@@H](n2nc(-c3ccc(C(=O)Nc4ccccn4)cc3)c3c(N)ncc(Cl)c32)C1 [BCD-BTK-295, (R)-4-(4-amino-1-(1-(but-2-ynoyl)piperidin-3-yl)-7-chloro-1H-pyrazolo[4,3-c]pyridin-3-yl)-N-(pyridin-2-yl)benzamide] | 32.5 | 16.23
